# Calls of active or inactive are those of the source. The rule behind the calls is not given here.
# Assays:
# Escherichia coli [1] = experiment: Induction of Escherichia coli AB1157 DNA degradation after 1 hr by agarose gel electrophoresis
# Albumin = Albumin (Bos taurus, UniProt P02769); experiment: Induction of Bos taurus (bovine) serum albumin degradation after 1 hr by SDS-PAGE analysis; settings: cattle
# [2] = Antioxidant activity assessed as SOD-like activity measuring inhibition of superoxide radical production at 50 ug after 30 min by NBT reduction assay; assay type: functional
# Saccharomyces cerevisiae [3] = experiment: Antimicrobial activity against Saccharomyces cerevisiae after 24 hr by CLSI liquid dilution method; assay type: functional
# Staphylococcus aureus [4] = experiment: Antimicrobial activity against Staphylococcus aureus after 24 hr by CLSI liquid dilution method; assay type: functional
# Pseudomonas aeruginosa [5] = experiment: Antimicrobial activity against Pseudomonas aeruginosa after 24 hr by CLSI liquid dilution method; assay type: functional
# Bacillus subtilis [6] = experiment: Antimicrobial activity against Bacillus subtilis after 24 hr by CLSI liquid dilution method; assay type: functional
# Escherichia coli [7] = experiment: Antimicrobial activity against Escherichia coli after 24 hr by CLSI liquid dilution method; assay type: functional
# Saccharomyces cerevisiae [8] = experiment: Antimicrobial activity against Saccharomyces cerevisiae at 100 ug after 24 hr by cup diffusion technique; assay type: functional; settings: read-out: DIZ
# Staphylococcus aureus [9] = experiment: Antimicrobial activity against Staphylococcus aureus at 100 ug after 24 hr by cup diffusion technique; assay type: functional; settings: read-out: DIZ
# Pseudomonas aeruginosa [10] = experiment: Antimicrobial activity against Pseudomonas aeruginosa after 24 hr by cup diffusion technique; assay type: functional
# Bacillus subtilis [11] = experiment: Antimicrobial activity against Bacillus subtilis at 100 ug after 24 hr by cup diffusion technique; assay type: functional; settings: read-out: DIZ
# Escherichia coli [12] = experiment: Antimicrobial activity against Escherichia coli at 100 ug after 24 hr by cup diffusion technique; assay type: functional; settings: read-out: DIZ
# [13] = Antioxidant activity assessed as DPPH scavenging activity at 50 ug after 30 min by spectrophotometry; assay type: functional
# Albumin, sequence (P02769 whole entry): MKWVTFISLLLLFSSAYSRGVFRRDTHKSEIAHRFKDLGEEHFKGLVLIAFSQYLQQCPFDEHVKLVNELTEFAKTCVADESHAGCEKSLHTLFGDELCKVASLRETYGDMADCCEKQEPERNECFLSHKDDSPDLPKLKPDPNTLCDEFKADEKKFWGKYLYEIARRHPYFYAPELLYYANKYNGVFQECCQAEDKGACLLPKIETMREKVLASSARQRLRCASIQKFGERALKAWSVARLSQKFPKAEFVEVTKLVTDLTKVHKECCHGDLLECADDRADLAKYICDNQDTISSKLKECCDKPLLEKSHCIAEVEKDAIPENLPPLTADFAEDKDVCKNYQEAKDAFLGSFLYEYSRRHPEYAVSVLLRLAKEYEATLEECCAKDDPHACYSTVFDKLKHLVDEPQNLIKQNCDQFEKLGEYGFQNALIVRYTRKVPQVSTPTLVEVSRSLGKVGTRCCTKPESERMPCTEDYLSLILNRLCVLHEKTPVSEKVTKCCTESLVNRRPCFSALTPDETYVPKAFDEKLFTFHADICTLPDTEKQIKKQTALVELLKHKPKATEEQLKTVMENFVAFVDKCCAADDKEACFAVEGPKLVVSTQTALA
Compound,Activity (Escherichia coli [1]),Activity (Albumin),MIC (Saccharomyces cerevisiae [3]) [µg/mL],MIC (Staphylococcus aureus [4]) [µg/mL],MIC (Pseudomonas aeruginosa [5]) [µg/mL],MIC (Bacillus subtilis [6]) [µg/mL],MIC (Escherichia coli [7]) [µg/mL],inhibition [2] [%],zone of inhibition at 100 µg/disc (Saccharomyces cerevisiae [8]) [mm],zone of inhibition at 100 µg/disc (Staphylococcus aureus [9]) [mm],diameter of the inhibition zone (DIZ) (Pseudomonas aeruginosa [10]) [mm],zone of inhibition at 100 µg/disc (Bacillus subtilis [11]) [mm],zone of inhibition at 100 µg/disc (Escherichia coli [12]) [mm],Activity [13] [%]
N#Cc1ccc(-c2ccc(-c3cccs3)o2)nc1 [6-[5-(THIOPHEN-2-YL)FURAN-2-YL]NICOTINONITRILE],Active,Active,10,15,10,15,10,40.3,16,12,16,13,14,–
N=C(N)c1ccc(-c2ccc(-c3cccs3)o2)nc1 [6-[5-(THIOPHEN-2-YL)FURAN-2-YL]NICOTINAMIDINE],Active,Active,15,10,20,15,15,44.2,10,11,7,5,8,–
"N#Cc1ccc(-c2ccc(-c3cccs3)s2)cc1 [4-(2,2'-BITHIOPHEN-5-YL)BENZONITRILE]",Active,Active,10,20,10,20,15,57.8,13,9,12,12,10,61.8
CC1(C)S[C@@H]2[C@H](NC(=O)[C@H](N)c3ccccc3)C(=O)N2[C@H]1C(=O)O [AMPICILLIN],–,–,7.5,10,15,15,10,–,17,12,12,18,16,–
N=C(N)c1ccc(-c2ccc(-c3cccs3)o2)cc1 [4-[5-(THIOPHEN-2-YL)FURAN-2-YL]BENZAMIDINE],–,Active,7.5,10,15,10,15,53.7,12,10,9,11,9,57.7
"N=C(N)c1ccc(-c2ccc(-c3cccs3)s2)cc1 [4-(2,2'-BITHIOPHENE-5-YL)BENZAMIDINE]",Active,Not Active,10,15,20,15,10,48.1,12,8,8,9,11,51.9

# Continued by falling MIC (Saccharomyces cerevisiae [3]), values first:
Activity (Escherichia coli [1]),Activity (Albumin),MIC (Saccharomyces cerevisiae [3]) [µg/mL],MIC (Staphylococcus aureus [4]) [µg/mL],MIC (Pseudomonas aeruginosa [5]) [µg/mL],MIC (Bacillus subtilis [6]) [µg/mL],MIC (Escherichia coli [7]) [µg/mL],Compound,inhibition [2] [%],zone of inhibition at 100 µg/disc (Saccharomyces cerevisiae [8]) [mm],zone of inhibition at 100 µg/disc (Staphylococcus aureus [9]) [mm],diameter of the inhibition zone (DIZ) (Pseudomonas aeruginosa [10]) [mm],zone of inhibition at 100 µg/disc (Bacillus subtilis [11]) [mm],zone of inhibition at 100 µg/disc (Escherichia coli [12]) [mm],Activity [13] [%]
Active,Active,15,20,15,15,20,"N=C(N)c1ccc(-c2ccc(-c3ccco3)o2)cc1 [4-(2,2'-BIFURAN-5-YL)BENZAMIDINE]",39.7,11,8,10,9,6,–
Active,Not Active,10,15,15,10,15,N#Cc1ccc(-c2ccc(-c3cccs3)o2)cc1 [4-[5-(THIOPHEN-2-YL)FURAN-2-YL]BENZONITRILE],46.9,15,12,16,14,12,53.1
Active,Not Active,10,15,15,15,15,"N=C(N)c1ccc(-c2ccc(-c3ccco3)o2)nc1 [6-(2,2'-BIFURAN-5-YL)NICOTINAMIDINE]",44.6,12,6,7,7,9,–
Active,Active,5,15,15,15,10,"N=C(N)c1ccc(-c2ccc(-c3cccs3)s2)nc1 [6-(2,2'-BITHIOPHENE-5-YL)NICOTINAMIDINE]",51.4,14,10,9,7,10,58.2
Active,Not Active,2.5,15,7.5,10,15,"N#Cc1ccc(-c2ccc(-c3cccs3)s2)nc1 [6-(2,2'-BITHIOPHEN-5-YL)NICOTINONITRILE]",52.9,19,13,15,12,13,55.4
Active,Active,2.5,2,5,2.5,2.5,"N#Cc1ccc(-c2ccc(-c3ccco3)o2)cc1 [4-(2,2'-BIFURAN-5-YL)BENZONITRILE]",42.4,16,18,16,19,18,–
Active,Not Active,2,2.5,5,5,7.5,"N#Cc1ccc(-c2ccc(-c3ccco3)o2)nc1 [6-(2,2'-BIFURAN-5-YL)NICOTINONITRILE]",34.9,20,17,16,16,14,–

# Reference: ChEMBL document CHEMBL3045539, “Synthesis, DNA affinity, and antimicrobial activity of 4-substituted phenyl-2,2-bichalcophenes and aza-analogues” (Med Chem Res, 2012)
